Assay results from ChEMBL document CHEMBL2034870, “Activity landscape modeling of PPAR ligands with dual-activity difference maps” (Bioorg Med Chem, 2012).

What was measured:
[1] = target: T1, Peroxisome proliferator-activated receptor alpha (Homo sapiens, UniProt Q07869); assay type: functional
T1 sequence (Q07869 whole entry): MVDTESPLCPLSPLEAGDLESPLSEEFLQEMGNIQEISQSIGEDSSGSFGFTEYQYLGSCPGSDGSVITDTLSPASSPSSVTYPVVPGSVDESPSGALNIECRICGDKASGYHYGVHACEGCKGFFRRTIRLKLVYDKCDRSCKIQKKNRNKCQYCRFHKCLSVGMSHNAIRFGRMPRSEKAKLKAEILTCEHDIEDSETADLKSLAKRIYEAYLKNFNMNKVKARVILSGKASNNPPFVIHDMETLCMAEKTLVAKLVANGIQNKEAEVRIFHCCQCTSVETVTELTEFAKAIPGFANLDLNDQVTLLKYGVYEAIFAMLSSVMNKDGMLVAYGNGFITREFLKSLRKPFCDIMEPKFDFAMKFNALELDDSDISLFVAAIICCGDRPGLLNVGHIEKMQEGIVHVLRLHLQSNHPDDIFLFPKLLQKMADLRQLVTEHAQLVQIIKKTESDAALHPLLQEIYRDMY

[2] = target: T2, Peroxisome proliferator-activated receptor delta (Homo sapiens, UniProt Q03181); assay type: functional
T2 sequence (Q03181 whole entry): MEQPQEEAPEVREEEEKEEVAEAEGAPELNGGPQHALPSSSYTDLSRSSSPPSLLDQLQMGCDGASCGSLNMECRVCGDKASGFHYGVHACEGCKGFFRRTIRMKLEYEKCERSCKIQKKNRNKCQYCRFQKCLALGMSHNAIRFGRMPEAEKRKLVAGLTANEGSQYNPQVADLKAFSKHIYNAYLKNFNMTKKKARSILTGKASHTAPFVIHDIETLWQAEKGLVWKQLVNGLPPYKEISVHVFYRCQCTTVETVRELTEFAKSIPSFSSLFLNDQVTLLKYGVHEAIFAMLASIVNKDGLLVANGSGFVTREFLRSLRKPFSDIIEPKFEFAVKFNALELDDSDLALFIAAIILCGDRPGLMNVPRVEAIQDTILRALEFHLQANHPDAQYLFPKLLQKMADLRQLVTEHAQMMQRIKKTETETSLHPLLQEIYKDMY

Row | SMILES | IC50 ([1]; read-out: pIC50 (converted)) | IC50 ([2]; read-out: pIC50 (converted)) | IC50 ([1]; read-out: IC50) | IC50 ([2]; read-out: IC50)
1 | CCCc1c(OCCCSc2ccc(CC(=O)O)cc2Cl)ccc(/C(CC)=N\O)c1O | 100 nM | 10 nM | – | –
2 | O=C1NC(=O)[C@H](c2cccc(OCCCOc3ccc(Oc4ccccc4)cc3)c2)S1 | – | 190 nM | – | –
3 | CCCC[C@@](Cc1ccc(OCCc2nc(-c3ccccc3)oc2C)cc1)(Oc1ccccc1)C(=O)O | – | – | 1850 nM | 7230 nM
4 | Cc1oc(-c2ccccc2)nc1CCOc1ccc(C[C@H](Oc2ccccc2)C(=O)O)cc1 | – | – | 1110 nM | 7040 nM
5 | CC[C@@](Cc1ccc(OCCc2nc(-c3ccccc3)oc2C)cc1)(Oc1ccccc1)C(=O)O | 473 nM | 5070 nM | – | –
6 | CCCn1c(CCCc2ccc(OC(C)(C)C(=O)O)cc2)nn([C@H](C)c2ccccc2)c1=O | 220 nM | 1500 nM | – | –
7 | CC(C)Cc1cc(Oc2ccccc2)ccc1OCCCOc1ccc([C@@H]2SC(=O)NC2=O)cc1 | – | – | 340 nM | 160 nM
8 | CCCc1cc(Oc2ccc(O)cc2)ccc1OCCCOc1cccc([C@@H]2SC(=O)NC2=O)c1 | – | – | – | 3800 nM
9 | CCO[C@H](Cc1ccc2c(c1)cc(C)n2Cc1nc(-c2ccc(C(F)(F)F)cc2)oc1C)C(=O)O | 352 nM | 372 nM | – | –
10 | O=C(O)[C@@H]1CCc2ccc(OCCCOc3ccc(OCC(F)(F)F)cc3Cl)cc2O1 | – | – | 810 nM | 6900 nM
11 | CCCO[C@H](Cc1ccc2c(ccn2Cc2nc(-c3ccc(C(F)(F)F)cc3)oc2C)c1)C(=O)O | 40 nM | – | – | –
12 | Cc1oc(-c2ccc(C(F)(F)F)cc2)nc1Cn1ccc2cc(C[C@@H](OC(C)C)C(=O)O)ccc21 | 61 nM | 891 nM | – | –
13 | CCCc1cc(-c2ccccc2)ccc1OCCCOc1cccc([C@@H]2OC(=O)NC2=O)c1 | – | 1510 nM | – | –
14 | CCO[C@@H](Cc1cccc2c1ccn2Cc1nc(-c2ccccc2)oc1C)C(=O)O | 125 nM | 3500 nM | – | –
15 | CCCc1cc(OC2CCCC2)ccc1OCCCOc1cccc([C@@H]2SC(=O)NC2=O)c1 | – | 920 nM | – | –
16 | CCCc1cc(-c2noc3ccccc23)ccc1OCCCOc1cccc([C@@H]2SC(=O)NC2=O)c1 | – | 140 nM | – | –
17 | CCCc1cc(C(=O)c2ccccc2)ccc1OCCCOc1cccc([C@@H]2SC(=O)NC2=O)c1 | – | 170 nM | – | –
18 | CCCc1cc(C2CCCC2)ccc1OCCCOc1cccc([C@H]2OC(=O)NC2=O)c1 | – | 3850 nM | – | –
